The values below are quoted from earlier work in article PMC9102399 (Molecules, 2022).

The conditions of series [1]: rats, oral; curcumin 500 mg/kg.
For series [2] the following is noted: beagle dogs.
On the set-up of series [3]: method as in earlier work. The note with it: SD rats.

Turning to `COc1cc(/C=C/C(=O)CC(=O)/C=C/c2ccc(O)c(OC)c2)ccc1O` [curcumin], the “time of maximal plasma concentration” value in series [1] is 30 min.

On to `COc1cc(C=CC(=O)CC(=O)C=Cc2ccc(O)c(OC)c2)ccc1O` [CUR, 1,7-bis [4-hydroxy-3-methoxy-phenyl]-hepta-1,6-diene-3,5-dione], for which the “oral t1/2 of CUR” value in series [2] is on record as “about 0.85 h”.

Regarding `COc1cc(C=CC(=O)CC(=O)C=Cc2ccc(O)cc2)ccc1O` [CUR II, 4-hydroxycinnamoyl-[4-hydroxy-3-methoxycinnamoyl] methane], the “t1/2 of oral CUR II” value in series [3] is reported as “about 5.5 h”.
